Assay [1] has as its target T1, c-Myc-Max heterodimer binding to E-Box DNA (Homo sapiens, UniProt P01106).
T1 construct: 6xHis with TEV site (N, cleaved yes); made in house; host or cells: c-Myc: E. coli BL21DE3(pLysS); Max: E. coli M15(pRep4)
The assay can be described thus: Electrophoretic mobility shift assay (EMSA) of c-Myc-Max DNA binding. The note with it: c-Myc-Max dimer 1 μM, 10 nM E-Box DNA. The class given is biochemical. The method, then: FIG. 17. Inhibition of c-Myc-Max DNA binding measured by electrophoretic mobility shift assay (EMSA). a. Inhibition by bivalent compounds 11, 12, 13. b. Inhibition by bivalent compounds 16, 17, 18. c. Inhibition by monovalent compounds 10074-G5 (1) and 10058-F4 (2). Inhibitor concentrations are micromolar. The c-Myc-Max dimer concentration was 1 μM in a and b, 50 nM in c.
Reactions containing c-Myc353-437 and varying concentrations of each tested inhibitor in a buffer containing 1×PBS, 1 mM EDTA; 0.1% NP40; 5% Glycerol; 1 mM DTT; 0.4 mg/mL BSA were incubated for 30 minutes, followed by addition of pre-mixed p21 Max and a synthetic double-stranded oligonucleotide containing a consensus c-Myc-binding “E-Box” element (CACGTG). The final protein concentration was 1 μM for both c-Myc353-437 and p21 Max, 10 nM E-Box DNA. The binding reaction was then allowed to proceed for an additional 15 minutes before loading on an 8% running gel (80:1 poly acrylamide:bis-acrylamide). Control experiments with the monovalent parent inhibitors 1 and 2 were similarly performed using a lower (50 nM) concentration of each protein component. Gels were run at 20° C. in 0.5×TBE and scanned on a BioRad FX molecular imager. Data were analyzed with BioRad Quantity One software.
We evaluated the efficacy of the linked compounds 11, 12, 13, 16, 17, 18 in inhibiting the c-Myc-Max interaction by measuring the binding of a target DNA sequence (E-Box) by the protein heterodimers in an electrophoretic mobility shift assay (EMSA). […] Of these, the best was compound 16 (LINK N1), with an IC50 in the 0.5-1.0 μM in both of the above cell lines. In contrast, higher concentrations of the compounds were required to inhibit the growth of the non-transformed rat fibroblast line TGR1 or of TGR1-derived c-Myc null rat fibroblasts reconstituted with either of the c-Myc target genes HMGA1b or MT-MC1, which restore a normal growth rate. […] The lower, albeit promising, potency of the bivalent inhibitors in cell based assays compared to ones involving purified components, and the partial lack of correlation between the first and the latter, may reflect a generally poor cell permeability of these compounds, which are relatively bulky and display higher than optimal polar surface areas. The effects of the linker chain connectivity on the compounds conformation and shape may also affect their cell permeability in a different manner from what observed for their c-Myc binding affinity, resulting in the aforementioned incomplete correlation between their performance in cell based and purified components assays (FIG. 19). […]
Background: A gel shift assay detects complexes by their altered migration in electrophoresis.

The target in the next assay is T2, c-Myc 363-381 (Homo sapiens, UniProt P01106).
T2 construct: The synthetic peptide c-Myc363-381 is described in Follis; host or cells: synthetic peptide
The assay can be described thus: Fluorescence polarization titration, truncated c-Myc peptide 363-381. The note with it: Table 2; segment with binding site of 1; read-out: Binding affinity to c-Myc 363-381. From the text: A c-Myc353-437 full-length bHLH-ZIP domain and its truncated version c-Myc390-439 were produced from the c-Myc/pET SKB3 construct, kindly supplied by Dr. S. K. Nair (University of Illinois, Urbana-Champaign), by insertion into the pET151D vector, encoding an N-terminal hexahistidine (6× His), separated by a TEV protease digestion site, with the TOPO® ligation system, and over-expressed in E. coli BL21DE3(pLysS). The 6× His tagged human Max isoform p21, with low homodimerization affinity^70, cloned into the pQE10 vector (Qiagen, Inc.), was over-expressed in E. coli M15(pRep4). Bacterial cultures were grown at 37° C. in LB medium to OD600≈0.8, then induced with 0.5 mM IPTG for 5 hours. Proteins were purified by Ni-agarose chromatography with a pH gradient elution. The 6× His tag of c-MYC353-437 and c-Myc390-439 was cleaved using TEV protease (the TEV protease was expressed in a pET24 vector [courtesy of S. K. Nair] and purified by Ni-agarose chromatography under native conditions). All the proteins were further purified by HPLC and lyophilized. Protein concentrations were determined by measurement of OD280. […]
Samples were analyzed in a Photon Technology International QuantaMaster fluorimeter (Birmingham, N.J.) equipped with polymer sheet polarizers. […] Excitation and emission wavelengths were independently determined for each inhibitor. […]

A further assay has as its target T3, c-Myc 400-439 (Homo sapiens, UniProt P01106).
T3 construct: its truncated version c-Myc390-439 were produced from the c-Myc/pET SKB3 construct; 6xHis with TEV site (N, cleaved yes); made in house; host or cells: E. coli BL21DE3(pLysS)
The assay can be described thus: Fluorescence polarization titration, truncated c-Myc segment. The note with it: Table 2; segment with binding site of 2; read-out: Binding affinity to c-Myc 400-439. Background: In fluorescence polarisation assays a small probe gives low polarisation when free and higher when bound to something large.

Each structure is given as a SMILES string.

T1 sequence (P01106 368-452, one chain of several): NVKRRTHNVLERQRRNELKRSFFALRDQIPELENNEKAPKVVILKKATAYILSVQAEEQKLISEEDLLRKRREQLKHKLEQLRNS
T3 sequence (P01106 405-454): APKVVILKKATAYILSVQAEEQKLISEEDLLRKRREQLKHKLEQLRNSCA

As for `O=C1NC(=S)SC1=Cc1ccc(C(=O)NCCCCCNC(=O)c2ccc(Nc3ccc([N+](=O)[O-])c4nonc34)cc2)cc1` [compound 13], the “Disruption of c-Myc-Max DNA (E-Box) binding” value (from here on “Disruption of c-Myc-Max DNA”) in assay [1] was “Strong disruption of DNA binding”. Further, the Kd on c-Myc 363-381 was 0.0008 ± 0.0006 µM; on c-Myc 400-439, 0.053 ± 0.016 µM.

With `CCc1ccc(C=C2SC(=O)N(CCCCCCNC(=O)c3cccc(Nc4ccc([N+](=O)[O-])c5nonc45)c3)C2=O)cc1` [compound 17], the “Disruption of c-Myc-Max DNA” value in assay [1] was “Strong disruption of DNA binding”.

For `O=C1NC(=S)S/C1=C\c1ccc(C(=O)NCCCCCNC(=O)c2cccc(Nc3ccc([N+](=O)[O-])c4nonc34)c2)cc1` [compound 12, N-[5-({3-[(7-nitro-2,1,3-benzoxadiazol-4-yl)amino]phenyl}formamido)pentyl]-4-{[(5Z)-4-oxo-2-sulfanylidene-1,3-thiazolidin-5-ylidene]methyl}benzamide], the “Disruption of c-Myc-Max DNA” value in assay [1] was “Strong disruption of DNA binding”.

Turning to `CCc1ccc(/C=C2\SC(=O)N(CCCCCCNC(=O)c3ccccc3Nc3ccc([N+](=O)[O-])c4nonc34)C2=O)cc1` [compound 16, N-{6-[(5Z)-5-[(4-ethylphenyl)methylidene]-2,4-dioxo-1,3-thiazolidin-3-yl]hexyl}-2-[(7-nitro-2,1,3-benzoxadiazol-4-yl)amino]benzamide amine], the “Disruption of c-Myc-Max DNA” value in assay [1] was “Strong disruption of DNA binding”.

Source of the values: patent US8637556B2, “Linked Myc-max small molecule inhibitors” (University of Pittsburgh—Of the Commonwealth System of …, priority 2009, dated 2014).
